The nature of data set [1]: MTT cell viability assay in Vero E6 cells. It counts as cell-based. The conditions noted are these: African green monkey. On the technique in general: Formazan colour is commonly taken as a measure of viable cells.
For data set [2], the system named is SARS-CoV-2 M^pro (NanoLuc-nsp4-M^pro fusion protein). It counts as cell-based.
Data set [3] deals with SARS-CoV-2. Put plainly: Virus yield reduction assay of SARS-CoV-2 in Calu-3 cells. It counts as cell-based. The conditions noted are these: MOI 0.01, 36 h p.i., titration on Vero E6.
The next data set deals with HCoV-229E. Put plainly: microbe, parasite or virus in culture. The class given is cell-based. To be noted: for EC50: Human coronavirus 229E, MRC5, 144 h, read-out: HCoV-229E EC50.
The nature of data set [4]: MTT cell viability assay in MRC-5 cells. It counts as cell-based. The conditions noted are these: human.
The subject of data set [5] is SARS-CoV-2. Put plainly: Plaque reduction assay. It counts as cell-based, SARS-CoV-2/NL/2020 strain. The conditions noted are these: ratio between CC50 and EC50; SARS-CoV-2, Vero E6 cells. In general terms: Plaque reduction counts the foci of infection that form in a cell layer.
The test system of the next data set is HCoV-OC43. Put plainly: Plaque reduction assay against HCoV-OC43 in MRC-5 cells. It counts as cell-based. To be noted: infected MRC-5 cells.
For another data set, the target named is SARS-CoV-2 M^pro (Severe acute respiratory syndrome coronavirus 2, UniProt P0DTD1). Put plainly: FRET-based SARS-CoV-2 M^pro activity assay in vitro. It counts as biochemical. To be noted: for Inhibitory effect on M^pro catalytic activity at fixed concentration: 100 μM, cut-off 50% of inhibition; for Fold increase of inhibitory potency against M^pro compared to parental hit 7: compared to hit 7.

The test system of data set [6] is SARS-CoV-2. Put plainly: Time-of-addition experiments with SARS-CoV-2 in Vero E6 cells. The conditions noted are these: 50 μM, added at +4 h p.i. The class given is cell-based.

Results on 5 compounds are retold here after publication PMC9172283 (Antiviral Research, 2022).

Each structure is given as a SMILES string. Where only a bound is given, the exact number is not on record here.

What is called CC50 is the concentration giving 50% cytotoxicity. In general, EC50 refers to the concentration that produces a half-maximal response. The IC50 is the midpoint of a concentration-inhibition curve.

Regarding `CC(C)(C)NC(=O)N[C@H](C(=O)N1C[C@H]2[C@@H]([C@H]1C(=O)NC(CC1CCC1)C(=O)C(N)=O)C2(C)C)C(C)(C)C` (stereo partly drawn) [BOC, Boceprevir, reference compound], the cytotoxic concentration (CC50) at 72 h in data set [1] is greater than 500 µM. For the same compound, the “Inhibition of proteolytic cleavage of NanoLuc-nsp4-M^pro in cells” value (shortened to “Inhibition”) in data set [2] was “not detected”.
For `O=C(Nc1ccc2c(c1)OCO2)c1nnc(C(=O)N2CCCC(C(=O)NCc3ccccc3)C2)s1` (stereo not drawn) [Compound 5], the CC50 at 72 h in data set [1] turned out to be 207 ± 14 µM. In the data set on SARS-CoV-2 [3], the “SARS-CoV-2 titers in supernatants of infected and treated Calu-3 cells” value (from here on “SARS-CoV-2 titers in supernatants”) is “significantly reduced SARS-CoV-2 titers”. For the same compound, in the data set on HCoV-229E, the “Activity towards HCoV-229E” value is reported as “retained activity” and the EC50 was determined as 10.4 ± 4.1 µM. In data set [4], this compound registered a CC50 at 72 h of 100 ± 11.9 µM. In the data set with SARS-CoV-2 [5], the “SI, Selectivity Index” value was determined as 29. In addition, the “Activity towards HCoV-OC43” value in the data set on HCoV-OC43 is “retained activity”. Moreover, at SARS-CoV-2 M^pro, the IC50 is 29 ± 3.7 µM and the “Inhibitory effect on M^pro catalytic activity at fixed concentration” value is on record as “exerted an inhibitory effect”.
In data set [1], `NC(=O)c1c(NC(=O)c2cnn3c(C(F)(F)F)cc(-c4ccccc4)nc23)sc2c1CCCC2` [Compound 25] registered a CC50 at 72 h greater than 250 µM. Moreover, the “SARS-CoV-2 titers in supernatants” value in the data set on SARS-CoV-2 [3] is reported as “significantly reduced SARS-CoV-2 titers”. Besides, the EC50 in the data set with HCoV-229E was greater than 25 µM. In [4], this compound showed a CC50 at 72 h greater than 250 µM. For the same compound, in the data set on SARS-CoV-2 [5], the “SI, Selectivity Index” value is given as greater than 31. Also, in the data set on HCoV-OC43, the “Activity towards HCoV-OC43” value is recorded as “retained activity”. Also, at SARS-CoV-2 M^pro, the IC50 came to 26.6 ± 7.4 µM and the “Inhibitory effect on M^pro catalytic activity at fixed concentration” value was “exerted an inhibitory effect”.
For the compound `CC(C)[C@H](NC(=O)c1ccccc1NC(=O)c1ccccc1)C(=O)N[C@H](CO)C(C)C` [Compound 36, 2-Benzamido-N-((S)-1-(((S)-1-hydroxy-3-methylbutan-2-yl)amino)-3-methyl-1-oxobutan-2-yl)benzamide], the CC50 at 72 h in [1] was greater than 250 µM. Further, in the data set on SARS-CoV-2 [3], the “SARS-CoV-2 titers in supernatants” value is listed as “confirmed active”. Moreover, the “Time-of-addition: effect of addition at 4 h p.i.” value in the data set with SARS-CoV-2 [6] is recorded as “still exerted an antiviral effect”. In [2], the “Inhibition” value was “dose-dependent inhibition of the proteolytic cleavage”. Further, in the data set on SARS-CoV-2 [5], the “SI, Selectivity Index” value is greater than 192. Besides, at SARS-CoV-2 M^pro, the IC50 was found to be 42.9 ± 8.3 µM and the “Fold increase of inhibitory potency against M^pro compared to parental hit 7” value is on record as greater than 2 fold.
As for `CC(C)[C@H](NC(=O)c1ccccc1NC(=O)c1ccccn1)C(=O)N[C@H](CO)C(C)C` [Compound 37, N-(2-(((S)-1-(((S)-1-Hydroxy-3-methylbutan-2-yl)amino)-3-methyl-1-oxobutan-2-yl)carbamoyl)phenyl)picolinamide], the CC50 at 72 h in data set [1] was greater than 250 µM. Further, the “SARS-CoV-2 titers in supernatants” value in the data set with SARS-CoV-2 [3] is listed as “confirmed active”. In the data set on SARS-CoV-2 [6], the “Time-of-addition: effect of addition at 4 h p.i.” value was “still exerted an antiviral effect”. Further, the “Inhibition” value in data set [2] is reported as “dose-dependent inhibition of the proteolytic cleavage”. In the data set with SARS-CoV-2 [5], the “SI, Selectivity Index” value is greater than 119. Besides, on SARS-CoV-2 M^pro, the IC50 was 41.3 ± 7.6 µM and the “Fold increase of inhibitory potency against M^pro compared to parental hit 7” value is given as greater than 2 fold.
